Values after ≈ are worked out from the molar mass of the structure shown.
What was measured:
Artemia = test: Toxicity in brine shrimp; type: organism-based; conditions: in vivo
A549 = test: Cytotoxicity against human A549 cells; type: functional; conditions: read-out: ED50 (the source's name)
MCF7 = test: Cytotoxicity against human MCF7 cells; type: functional; conditions: read-out: ED50 (the source's name)
HT-29 = test: Cytotoxicity against human HT-29 cells; type: functional; conditions: read-out: ED50 (the source's name)
[1] = system: Agrobacterium tumefaciens; test: Antitumor activity against Agrobacterium tumefaciens-induced crown gall tumors in potato tuber by potato disk test; type: functional

Which results are given for O=C1C=C[C@H](O)[C@H]([C@H](O)[C@H](O)c2ccccc2)O1 [GONIOTRIOL]?
LC50 (Artemia): 269 ppm; EC50 (A549): > 10 µg/mL; EC50 (MCF7): 5.9 µg/mL (≈ 23.6 µM); EC50 (HT-29): > 10 µg/mL; inhibition (INH) [1]: 38%

Source: ChEMBL document CHEMBL1147326, “Goniotriol from Goniothalamus giganteus” (J Nat Prod, 1989)
